Reference: US20110224240A1 (Myrexis, Inc., priority 2010, published 2011)
Marks after values point to notes of the source that are not given here.

Assays:
[1] = system: P388 murine leukemia cell line; assay: 72 hour cytotoxicity, ATP-Lite cell viability; format: cell-based; settings: Mus musculus, P388, Lymphoma, read-out: 72 Hour Cytotoxicity (IC50, nM ± SD)
Experimental: A P388 murine leukemia cell line was obtained from NCI, Frederick, Md. P388 cells were cultured in RPMI-1640 supplemented with 10% fetal bovine serum, 2 mM Glutamax, 1 mM sodium pyruvate, 0.1 mM non-essential amino acids and 10 mM HEPES. Cells were grown at 37° C. in a humidified 5% CO2 atmosphere. Exponentially growing P388 cells were plated at 5,000 cells/well in a 96-well flat-bottomed microtiter plate (Corning, Costar #3595, Lowell, Mass.). Twenty-four hours later, test compound was added to cells at final concentrations of 100 nM, 33.3 nM, 11.1 nM, 3.7 nM, 1.23 nM, 0.4 nM and 0.13 nM. Cellular viability was determined 72 hours later by measuring intracellular ATP with ATP-Lite assay system. The effect of compounds on cell viability was calculated by comparing the ATP levels of cells exposed to test compound with those of cells exposed to DMSO. A semi-log plot of relative ATP levels versus compound concentration was used to calculate the compound concentration required to inhibit growth by 50% (IC50). Data was analyzed by Prism software (GraphPad; San Diego, Calif.) by fitting it to a sigmoidal dose response curve.

[2] = system: MCF-7/MX (BCRP-1); assay: Multidrug resistant cell assay, cytotoxicity; format: cell-based; settings: MCF7/MX, 72 h, read-out: Various MDR Cell Line Cytotoxicity IC50
[3] = system: multiple cancer cell lines; assay: Pro-apoptotic activity in multiple cancer cell lines; format: cell-based
[4] = system: NCI/ADR-Res (MDR-1); assay: Multidrug resistant cell assay, cytotoxicity; settings: 72 h, read-out: Various MDR Cell Line Cytotoxicity IC50
[5] = Pharmacokinetic study in a primate, plasma; format: in vivo, cynomolgus monkey; settings: for Compound 1 Plasma Concentration: cynomolgus monkey, oral 20 mg/kg
Experimental: A single non-naïve male cynomolgus monkey was assigned to this study. […] Compound 1 was administered once orally via a gavage tube. The gavage tube was rinsed with water and removed. Blood was removed through the femoral artery/vein into a tube containing K3EDTA. The samples were centrifuged and the resulting plasma was separated and stored at approximately −70° C. until shipment to the analysis site. At the analysis site, the samples were stored at −20° C. until the day of analysis.
Plasma samples were analyzed for Compound 1 concentration using a LC-MS/MS method. The range of quantitation was 5-5000 ng/mL and utilized a 0.1 mL plasma sample volume. Concentration-time curves were constructed using WinNonlin (version 5.1.1).

[6] = system: P388/ADR (MDR-1); assay: Multidrug resistant cell assay, cytotoxicity; format: cell-based; settings: 72 hours, read-out: Various MDR Cell Line Cytotoxicity IC50
Experimental: P388/ADR cell lines were obtained from American Type Culture Collection (Manassas, Va.) and maintained in RPMI-1640 media supplemented with 10% FCS, 10 units/ml penicillin and streptomycin, 2 mM Glutamax and 1 mM sodium pyruvate (Invitrogen Corporation, Carlsbad, Calif.). […] Cells were allowed to adhere to the plate overnight and then incubated with the compound at final concentrations ranging from 0.13 nM to 10 uM for 72 hours. Cell viability was then assessed using the ATP-lite reagent (Perkin Elmer, Foster City, Calif.). Plates were read on a Wallac Topcount luminescence reader (Perkin Elmer, Foster City, Calif.) and the results graphed in Prism software (Graphpad Software, Inc., San Diego, Calif.). Non-linear regression with variable slope analysis was performed to obtain IC50 concentration values.

[7] = system: A549 cells; assay: Microtubule formation in A549 cells (FIG. 1); format: cell-based; settings: 100 nM, 1 μM, 10 μM
Experimental: FIG. 1 depicts the extent of microtubule formation in A549 cells treated with (2-aminomethylquinazolin-4-yl)-(4-methoxyphenyl)methylamine (“Compound 1”). The cells in panel “a” were treated with 100 nM concentration of Compound 1. The cells in panel “b” were treated with 1 μM concentration of Compound 1. The cells in panel “c” were treated with 10 μM concentration of Compound 1.
FIG. 1 depicts the extent of microtubule formation in A549 cells treated with Compound 1. The cells in panel “a” were treated with 100 nM concentration of Compound 1. The cells in panel “b” were treated with 1 μM concentration of Compound 1. The cells in panel “c” were treated with 10 μM concentration of Compound 1.

[8] = male cynomolgus monkey, fasted, single oral dose 20 mg/kg, plasma

Which IC50 [1] does the source give for `COc1ccc(N(C)c2nc(CN)nc3ccccc23)cc1` [Compound 1] here?
The IC50 was 6.1 ± 2.2 nM.

What about the IC50 [2] of the same molecule?
Its IC50 is 9 nM.

What about the “pro-apoptotic activity, potency” value ([3]; multiple cancer types including pancreatic, breast, colorectal, non-small cell lung, melanoma, ovarian cancers and leukemia) of the same molecule?
The value was “potency at low nanomolar concentrations”.

What about the “induction of apoptosis versus ABC transporter expression” value ([3]; regardless of expression levels of MDR-1 (Pgp-1), MRP-1, BCRP-1) of the same molecule?
The value was “equipotent for induction of apoptosis”.

What about the IC50 [4] of the same molecule?
The IC50 was 13 nM.

And the “Compound 1 Plasma Concentration” value ([5]; Post Dose Sample Time 0)?
Its value is 3.08* ng/mL.

And the “Compound 1 Plasma Concentration” value ([5]; Post Dose Sample Time 0.25)?
Its value is 27.40 ng/mL.

And the “Compound 1 Plasma Concentration” value ([5]; Post Dose Sample Time 0.5)?
Its value is 64.15 ng/mL.

What about the “Compound 1 Plasma Concentration” value ([5]; Post Dose Sample Time 1) of the same molecule?
The value was 112.05 ng/mL.

And the “Compound 1 Plasma Concentration” value ([5]; Post Dose Sample Time 2)?
The value was 166.01 ng/mL.

What about the “Compound 1 Plasma Concentration” value ([5]; Post Dose Sample Time 6) of the same molecule?
The value was 18.72 ng/mL.

What about the “Compound 1 Plasma Concentration” value ([5]; Post Dose Sample Time 12) of the same molecule?
Its value is 3.91* ng/mL.

What about the “oral bioavailability” value ([5]; male cynomolgus monkey dosed orally at 20 mg/kg) of the same molecule?
The value was “bioavailable”.

What about the AUC(0-inf) [5, 8] of the same molecule?
Its AUC(0-inf) is 536 ng·h/mL.

And the CL/F [5, 8]?
The CL/F was 622 mL/min/kg.

What about the Cmax [5, 8] of the same molecule?
Its Cmax is 166 ng/mL.

And the Tlast [5, 8]?
The Tlast was 12.0 h.

And the Tmax [5, 8]?
The Tmax was 2 h.

And the half-life [5, 8]?
The half-life was 1.9 h.

And the Vd/F ([5]; male cynomolgus monkey, fasted, single oral dose 20 mg/kg, plasma, read-out: Vz/F_obs)?
Its Vd/F is 102 L/kg.

And the IC50 [6]?
The IC50 was 27 nM.

What about the microtubule formation [7] of the same molecule?
Its microtubule formation is “inhibits microtubule formation”.
